Marks after values point to notes of the source that are not given here.

The conditions of series [1]: cited from earlier work; for log P (octanol/water partition coefficient): United Nations Office on Drugs and Crime, 2009.
Series [2] can be described thus: 9-month stability of dried cannabis drug stored in a vault (not under nitrogen). In kind it is physicochemical. Also on record: Analyte content, Nov. 17, 2016: unit not given beside the values. The following applies: for % Change from Day 0: 9-month storage, <0.05 assumed to be 0.05 for calculation; for Analyte content, Aug. 10, 2017 / Analyte content, Nov. 17, 2016: dried cannabis drug stored in a vault, not under nitrogen; for Analyte content, Aug. 10, 2017: 9 months; for Analyte content, Nov. 17, 2016: Day 0. The text has this:
A schematic depicting the production of exemplary cannabinoic acids and subsequent transformation to the related neutral form by conditions such as oxidation, heat and time is shown in FIG. 3.

The nature of series [3]: Dose uniformity of pellets. In kind it is physicochemical. The text has this:
The dose uniformity studies show improvement subsequent to optimization of the blending process. […] After optimizing the process, the dose uniformity for clinical batches was 5.59% and 5.13% for THC and THCA, respectively.

Setting [4] is: Phase 1 clinical batch, before optimization of blending.
The mark [5] stands for this setting: clinical batches after optimizing the process.

Consider `C=C(C)[C@@H]1CCC(C)=C[C@H]1c1c(O)cc(CCCCC)cc1O` [CBD, cannabidiol, reference compound], for which, in series [1], the “log P (octanol/water partition coefficient)” value was 5.79, the Solubility in ethanol result is listed as “soluble in ethanol” and the Solubility in water result was “not soluble in water”. In series [2], the “% Change from Day 0” value was 1260%; the “Analyte content, Aug. 10, 2017” value is 0.68; the “Analyte content, Nov. 17, 2016” value is given as <0.05*.
With `C=C(C)[C@@H]1CCC(C)=C[C@H]1c1c(O)cc(CCCCC)c(C(=O)O)c1O` [CBDA, cannabidiolic acid], in series [2], the “% Change from Day 0” value was 33.9%; the “Analyte content, Aug. 10, 2017” value was 2.03; the “Analyte content, Nov. 17, 2016” value is given as 3.07.
On the same counts, the results for `CCCCCc1cc(O)c(C/C=C(\C)CCC=C(C)C)c(O)c1` [CBG, cannabigerol] are 140%, 0.12 and <0.05*.
Take `CCCCCc1cc(O)c(C/C=C(\C)CCC=C(C)C)c(O)c1C(=O)O` [CBGA, cannabigerolic acid]: in series [2], the “Analyte content, Aug. 10, 2017” value came to 0.26 and the “Analyte content, Nov. 17, 2016” value is on record as 0.37.
As to `CCCCCc1cc(O)c2c(c1)OC(C)(C)[C@@H]1CCC(C)=C[C@@H]21` [THC, tetrahydrocannabinol, reference compound], the “log P (octanol/water partition coefficient)” value in series [1] is 6.99. In series [1] (pure THC, Mechoulam 1970, NIH 1996), the Stability result is “unstable in air, light, and at high temperatures”. In series [2], the “% Change from Day 0” value is 733%; the “Analyte content, Aug. 10, 2017” value stood at 1.75; the “Analyte content, Nov. 17, 2016” value is recorded as 0.21. Moreover, the “Dose uniformity, % variability” value in series [3] (setting [4]) was 12.82%. In series [3] (setting [5]), the “Dose uniformity, % variability” value is reported as 5.59%.
With `CCCCCc1cc2c(c(O)c1C(=O)O)[C@@H]1C=C(C)CC[C@H]1C(C)(C)O2` [THCA, tetrahydrocannabinolic acid], in series [2], the “Analyte content, Aug. 10, 2017” value is 6.02 and the “Analyte content, Nov. 17, 2016” value is recorded as 9.68. Also, the “Dose uniformity, % variability” value in series [3] (setting [4]) was found to be 15.07%. In series [3] (setting [5]), the “Dose uniformity, % variability” value came out at 5.13%.

The record behind these values is US20220054447A1, “CANNABIS COMPOSITIONS AND METHODS” (priority 2018, published 2022).
